Test results taken from US20220387544A1, “NOVEL THERAPEUTIC USE” (Artios Pharma Limited, priority 2019, published 2022).

Tests used:
Assay type in all cases: cell-based
[1] = test system: Parental and REV7 KO SUM149 cells; experiment: Clonogenic survival assay (ICR), SUM149 REV7 KO clones; details: REV7 KO clones vs parental SUM149, 14 days
Experimental: Clonogenic survival assays were performed as previously described (Edwards et al Nature (2008) 451, 1111-1115; Farmer et al Nature (2005) 434, 917-921). For measurement of sensitivity to Compound A inhibitor, exponentially growing cells were seeded in six-well plates at a concentration of 1000-2000 cells per well. For Compound A, cells were continuously exposed to the drug with media and drug replaced every 72 h. After 14 days, cells were fixed and stained with sulphorhodamine-B (Sigma) and colonies were counted. SFs were calculated and drug sensitivity curves plotted as previously described (Farmer et al Nature (2005) 434, 917-921).
Parental or REV7 KO SUM149 cells were seeded into 6 well plates and incubated overnight. The cells were then treated with a serial dilution of Polθ inhibitor or olaparib for 14 days, fixed, and stained with sulphorhodamine B. The colonies in each well were counted and normalised survival data plotted to generate a dose-response curve.

[2] = test system: parental and SHLD2 KO MDA-MB-436 cells; experiment: Colony formation assay, MDA-MB-436; details: SHLD2 KO vs parental MDA-MB-436 cells, colony solubilization protocol
Experimental: (§1) 1 mL of cells were seeded per well in a 24-well plate in triplicate and incubated overnight at 37° C. Cells were treated with a seven-point dose response curve with a one-in-three serial dilution of compound for the timepoints listed in Table 5. For MDA-MB-436 cells media was replenished every five days.
(§2) Cells were fixed with 70% ethanol for 20 minutes at room temperature with shaking. Cells were then stained with 0.04% Crystal Violet (Sigma Aldrich) for 20 minutes at room temperature with shaking. Cells were washed 6 times with water and air-dried overnight.
(§3) Plates were imaged using a Gelcount (Oxford Optronix), and colonies were counted using parameters optimized for each cell line. […] Colonies were solubilized using 10% acetic acid (VWR) for 30 minutes, absorbance at 595 nm was read using the Clariostar plate reader (BMG Labtech), and blank correction was applied. Relative Survival was calculated by normalization of compound treated wells to DMSO treated wells.
The effect of a DNA polymerase theta (Polθ) inhibitor (Compound A) and the PARP inhibitor olaparib on the survival of parental and SHLD2 deleted (SHLD2 KO) MDA-MB-436 cells was investigated by colony formation assay. Briefly, each population was seeded at low density, incubated with different concentrations of the compound and the relative survival normalized to untreated cells was measured with the colony solubilization protocol.

[3] = test system: Shieldin-defective, PARPi-resistant SUM149 cells; experiment: Re-sensitisation to olaparib
Experimental: For measurement of re-sensitisation to Olaparib, exponentially growing cells were exposed to Compound A for 48 hours. After, cells were seeded in 96-well plates at a concentration of 1000-2000 cells per well. 24 hours post-seeding, Olaparib treatment was initiated and cells were continuously exposed to the drug with media and drug replenished every 72 hours. After 10 days, cell viability was estimated using Cell-Titre Glo (Promega). SFs were calculated and drug sensitivity curves plotted as previously described (Farmer et al Nature (2005) 434, 917-921).
Briefly, parental SUM149 cells or derivatives with either BRCA1 restored or with genetic deletion of either C20orf196 or 53BP1 were treated with Compound A in a tissue culture flask for 48 hours. The cells were then washed before seeding at low density in 96 well plates. 24 hours post seeding, cells were incubated with either olaparib or DMSO for a further 10 days. The relative survival normalised to untreated cells was measured using Cell-Titre Glo.

[4] = test system: parental and SHLD2 KO HCC1395 cells; experiment: Colony formation assay, HCC1395; details: SHLD2 KO vs parental HCC1395 cells, colony solubilisation protocol
Experimental: as §1, §2, §3
The effect of a DNA polymerase theta […] inhibitor (Compound A) and the PARP inhibitor olaparib on the survival of parental and SHLD2 deleted (SHLD2 KO) HCC1395 cells was investigated by colony formation assay. Briefly, each population was seeded at low density, incubated with different concentrations of the compound and the relative survival normalized to untreated cells was measured with the colony solubilisation protocol.

[5] = test system: parental and REV7 KO 22Rv1 cells; experiment: Colony formation assay, 22Rv1; details: REV7 KO vs REV7 wild type parental 22Rv1 cells, 2 weeks
Experimental: as §1, §2
Plates were imaged using a Gelcount (Oxford Optronix), and colonies were counted using parameters optimized for each cell line. 22Rv1 viability curves were generated from the colony counts alone. MDA-MB-436 and […] viability curves were generated from solubilized colonies. Colonies were solubilized using 10% acetic acid (VWR) for 30 minutes, absorbance at 595 nm was read using the Clariostar plate reader (BMG Labtech), and blank correction was applied. Relative Survival was calculated by normalization of compound treated wells to DMSO treated wells.
The effect of a DNA polymerase theta (Polθ) inhibitor (Compound A) or the PARP inhibitor olaparib on the survival of parental (REV7 wild type) or REV7 deleted (REV7 KO) 22Rv1 cells was investigated in colony formation assays (CFA—see protocol above). […]

## Cc1cccc(N(C)C(=O)[C@@H]2[C@H](O)CCN2c2nc(C)cc(C(F)(F)F)c2C#N)c1 [Compound A, (2S,3R)-1-(3-cyano-6-methyl-4-(trifluoromethyl)pyridin-2-yl)-3-hydroxy-N-methyl-N-(m-tolyl)pyrrolidine-2-carboxamide]
[1]
  sensitivity by reduction in number of colonies: increased sensitivity
[2]
  sensitivity by relative survival: significantly more sensitive
[3]; Compound A 10 μM 48 hours then olaparib 1 μM 10 days, SUM149 C20orf196 and SUM149 53BP1 cells
  sensitivity to olaparib after pre-treatment: induced sensitivity
[3]; Compound A 10 μM for 48 hours then DMSO, SUM149 cells and derivatives
  effect on survival of 48 hours treatment alone: no effect on survival
[4]
  sensitivity by relative survival: significantly more sensitive
[5]
  sensitivity by relative survival (colonies): significantly more sensitive
